Test results: US20150141381A1, “TETRACYCLINE COMPOUNDS HAVING TARGET THERAPEUTIC ACTIVITIES” (Paratek Pharmaceuticals, Inc., priority 2001, published 2015)
Like-named read-outs stand apart in the source and are kept apart here.

Key:
E. coli mL308 225 = test: In Vitro Anti-Bacterial Activity Assay (MIC), gram negative; type: cell-based; settings: for MIC: Escherichia coli, ML308225, 18 h
S. aureus RN450 = test: In Vitro Anti-Bacterial Activity Assay (MIC), gram positive; type: cell-based; settings: Staphylococcus aureus, RN450, 18 h
[1] = gram negative bacteria, read-out: Antibiotic Activity Gram − (MIC)
[2] = gram positive bacteria, read-out: Antibiotic Activity Gram + (MIC)
[3] = MIC class, Table 3 (Continued), read-out: Gram− activity
[4] = MIC class, Table 3 (Continued), read-out: Gram+ activity
[5] = MIC class, Table 3, read-out: Antibiotic Activity Gram −
[6] = MIC class, Table 3, read-out: Antibiotic Activity Gram +

Structure (SMILES) | MIC (E. coli mL308 225; [1]) | MIC (S. aureus RN450; [2]) | MIC (E. coli mL308 225; [5]) | MIC (S. aureus RN450; [6]) | further results
CN(C)c1cc(C#CCNS(C)(=O)=O)c(O)c2c1C[C@H]1C[C@H]3[C@H](N(C)C)C(O)=C(C(N)=O)C(=O)[C@@]3(O)C(O)=C1C2=O | > 4 µg/mL | > 4 µg/mL | – | – | –
C#Cc1cc(N(C)C)c2c(c1O)C(=O)C1=C(O)[C@]3(O)C(=O)C(C(N)=O)=C(O)C(N(C)C)[C@@H]3C[C@@H]1C2 (some centres unmarked) | – | – | – | – | MIC (E. coli mL308 225; [3]): > 4 µg/mL; MIC (S. aureus RN450; [4]): < 4 µg/mL
CCCN(CCC)Cc1ccc(-c2ccc(O)c3c2C[C@H]2C[C@H]4[C@H](N(C)C)C(O)=C(C(N)=O)C(=O)[C@@]4(O)C(O)=C2C3=O)c2ccccc12 | < 4 µg/mL | < 4 µg/mL | – | – | –
CN(C)CC(=O)NCc1ccc(-c2ccc(O)c3c2C[C@H]2C[C@H]4[C@H](N(C)C)C(O)=C(C(N)=O)C(=O)[C@@]4(O)C(O)=C2C3=O)cc1 | > 4 µg/mL | < 4 µg/mL | – | – | –
CN(C)[C@@H]1C(O)=C(C(N)=O)C(=O)[C@@]2(O)C(O)=C3C(=O)c4c(O)c(CNC(=O)c5cccnc5)cc(CCC5CCCCC5)c4C[C@H]3C[C@@H]12 [CV] | – | – | > 4 µg/mL | < 4 µg/mL | –
CC(=O)Nc1ccc2c(c1O)C(=O)C1=C(O)[C@]3(O)C(=O)C(C(N)=O)=C(O)[C@@H](N(C)C)[C@@H]3C[C@@H]1C2 | > 4 µg/mL | < 4 µg/mL | – | – | –
CN(C)c1ccc(O)c2c1C[C@H]1C[C@H]3CC(O)=C(C(N)=O)C(=O)[C@@]3(O)C(O)=C1C2=O | < 4 µg/mL | < 4 µg/mL | – | – | –
CO/N=C(\C)c1ccc(O)c2c1C[C@H]1C[C@H]3[C@H](N(C)C)C(O)=C(C(N)=O)C(=O)[C@@]3(O)C(O)=C1C2=O [EU] | – | – | < 4 µg/mL | < 4 µg/mL | –
COCC(=O)Nc1ccc(-c2ccc(O)c3c2C[C@H]2C[C@H]4[C@H](N(C)C)C(O)=C(C(N)=O)C(=O)[C@@]4(O)C(O)=C2C3=O)cc1 | < 4 µg/mL | < 4 µg/mL | – | – | –
CN(C)[C@@H]1C(O)=C(C(N)=O)C(=O)[C@@]2(O)C(O)=C3C(=O)c4c(O)ccc(-c5ccc(C(C)(C)C)cc5)c4C[C@H]3C[C@@H]12 [drawing 3327] | – | – | – | – | Gram− activity (E. coli mL308 225; number printed instead of class symbol, Table 3 (Continued)): 1.5; MIC (S. aureus RN450; [4]): < 4 µg/mL
CN(C)c1cc(CNCCc2ccccc2)c(O)c2c1C[C@H]1C[C@H]3C(N(C)C)C(O)=C(C(N)=O)C(=O)[C@@]3(O)C(O)=C1C2=O (some centres unmarked) [EH] | – | – | < 4 µg/mL | < 4 µg/mL | –
COC(=O)CCc1ccc(O)c2c1C[C@H]1C[C@H]3C(N(C)C)C(O)=C(C(N)=O)C(=O)[C@@]3(O)C(O)=C1C2=O (some centres unmarked) [FC] | – | – | > 4 µg/mL | < 4 µg/mL | –
CN(C)c1cc(CNOC(C)(C)C)c(O)c2c1C[C@H]1C[C@H]3[C@H](N(C)C)C(O)=C(C(N)=O)C(=O)[C@@]3(O)C(O)=C1C2=O | < 4 µg/mL | < 4 µg/mL | – | – | –
CC(C)COC(=O)NCc1cc(N(C)C)c2c(c1O)C(=O)C1=C(O)[C@]3(O)C(=O)C(C(N)=O)=C(O)[C@H](N(C)C)[C@@H]3C[C@@H]1C2 [EQ] | – | – | > 4 µg/mL | < 4 µg/mL | –
CCc1cc(CNC(C)=O)c(O)c2c1C[C@H]1C[C@H]3C(N(C)C)C(O)=C(C(N)=O)C(=O)[C@@]3(O)C(O)=C1C2=O (some centres unmarked) [EM] | – | – | > 4 µg/mL | < 4 µg/mL | –
CCCC(=O)C[C@@H]1[C@H]2[C@H](N(C)C)C(O)=C(C(N)=O)C(=O)[C@@]2(O)C(O)=C2C(=O)c3c(O)cccc3C(C)[C@H]21 (some centres unmarked) | – | – | – | – | MIC (E. coli mL308 225; [3]): < 4 µg/mL; MIC (S. aureus RN450; [4]): < 4 µg/mL
CN(C)[C@@H]1C(O)=C(C(N)=O)C(=O)[C@@]2(O)C(O)=C3C(=O)c4c(O)ccc(/C=C/c5ccc(N)cc5)c4C[C@H]3C[C@@H]12 [AY] | – | – | > 4 µg/mL | < 4 µg/mL | –
CN(C)[C@@H]1C(O)=C(C(N)=O)C(=O)[C@@]2(O)C(O)=C3C(=O)c4c(O)c(CNc5ccccc5)cc(I)c4C[C@H]3C[C@@H]12 | > 4 µg/mL | < 4 µg/mL | – | – | –
COC(=O)c1ccc(-c2ccc(O)c3c2C[C@H]2C[C@H]4[C@H](N(C)C)C(O)=C(C(N)=O)C(=O)[C@@]4(O)C(O)=C2C3=O)cc1 | – | – | – | – | MIC (E. coli mL308 225; [3]): < 4 µg/mL; MIC (S. aureus RN450; [4]): < 4 µg/mL
